# Data taken from ChEMBL document CHEMBL4196104, “Hawaiienols A-D, Highly Oxygenated p-Terphenyls from an Insect-Associated Fungus, Paraconiothyrium hawaiiense” (J Nat Prod, 2018).
# Activity calls are given as the source filed them. The calls are words filed in the database; no cut-off is given here.
# What was measured:
# Type in all cases: functional, cell-based
# A549 [1] = experiment: Antiproliferative activity against human A549 cells at 50 uM after 24 hrs by CCK-8 assay
# T-24 [2] = experiment: Antiproliferative activity against human T24 cells at 50 uM after 24 hrs by CCK-8 assay
# HeLa [3] = experiment: Antiproliferative activity against human HeLa cells at 50 uM after 24 hrs by CCK-8 assay
# HCT-116 [4] = experiment: Antiproliferative activity against human HCT116 cells at 50 uM after 24 hrs by CCK-8 assay
# MCF7 [5] = experiment: Antiproliferative activity against human MCF7 cells at 50 uM after 24 hrs by CCK-8 assay
# SH-SY5Y [6] = experiment: Antiproliferative activity against human SH-SY5Y cells at 50 uM after 24 hrs by CCK-8 assay
# A549 [7] = experiment: Antiproliferative activity against human A549 cells after 24 hrs by CCK-8 assay; conditions: A549, 24 h
# T-24 [8] = experiment: Antiproliferative activity against human T24 cells after 24 hrs by CCK-8 assay; conditions: T-24, 24 h
# HeLa [9] = experiment: Antiproliferative activity against human HeLa cells after 24 hrs by CCK-8 assay
# HCT-116 [10] = experiment: Antiproliferative activity against human HCT116 cells after 24 hrs by CCK-8 assay; conditions: HCT-116, 24 h
# MCF7 [11] = experiment: Antiproliferative activity against human MCF7 cells after 24 hrs by CCK-8 assay; conditions: MCF7, 24 h
# SH-SY5Y [12] = experiment: Antiproliferative activity against human SH-SY5Y cells after 24 hrs by CCK-8 assay
Structure (SMILES),Activity (A549 [1]),Activity (T-24 [2]),Activity (HeLa [3]),Activity (HCT-116 [4]),Activity (MCF7 [5]),Activity (SH-SY5Y [6]),IC50 (A549 [7]),IC50 (T-24 [8]),IC50 (HeLa [9]),IC50 (HCT-116 [10]),IC50 (MCF7 [11]),IC50 (SH-SY5Y [12])
COc1ccc([C@]2(O)[C@H](O)C(=O)[C@@](O)(c3ccc(OC)cc3)[C@H](O)[C@H]2O)cc1,inactive,inactive,inactive,inactive,inactive,inactive,,,,,,
COc1ccc([C@]23O[C@](c4ccc(OC)cc4)([C@@H](O)[C@@H]2O)[C@@H](O)[C@@H]3O)cc1,inactive,inactive,inactive,inactive,inactive,inactive,,,,,,
COc1ccc([C@]23O[C@@H]4C2O[C@](OC)([C@H]3O)[C@]4(O)c2ccc(O)cc2)cc1,,,,,,,23.1 µM,46.6 µM,19.7 µM,57.1 µM,42.9 µM,9.3 µM
COc1ccc([C@]2(O)C(=O)[C@@]3(OC)OC2[C@@H](O)[C@@]3(O)c2ccc(OC)cc2)cc1,inactive,inactive,inactive,inactive,inactive,inactive,,,,,,
